From ChEMBL document CHEMBL5370643, “Discovery of MK-1468: A Potent, Kinome-Selective, Brain-Penetrant Amidoisoquinoline LRRK2 Inhibitor for the Potential Treatment of Parkinson's Disease” (J Med Chem, 2023)

Columns and labels:
[1] = Unbound drug concentration in guinea pig plasma at 20 mg/kg, iv administered continuously for 20 mins; type: ADME, organism-based, Cavia porcellus; settings: in vivo
[2] = Toxicity in Wistar-Han rat assessed as effect on systolic blood pressure at 60 mg/kg, po administered as single dose and measured upto 24 hrs by telemetric analysis; type: organism-based; settings: in vivo
[3] = Toxicity in Wistar-Han rat assessed as effect on mean blood pressure at 60 mg/kg, po administered as single dose and measured upto 24 hrs by telemetric analysis; type: organism-based; settings: in vivo
[4] = Unbound brain-to-plasma concentration ratio in iv dosed Wistar-Han rat administered as cassette dose by LC-MS/MS analysis; type: ADME, organism-based; settings: read-out: K(p,uu,brain)

## C[C@@]1(N2CCN(c3cc4cc(NC(=O)[C@H]5CC56CCOCC6)ncc4cc3Cl)CC2)COC[C@@H]1O
[1]
  Cp(f): 11.9 µM
[2]
  Activity: Non-Toxic
[3]
  Activity: Non-Toxic
[4]
  Kp uu: 0.3
